Where “and” joins values, the source holds several entries; their conditions need not be identical. Equal values may be shown once. Entries after “also recorded” stand apart in the source; their conditions may differ. Read-outs that look alike come from different tables or passages of the source.
Experiments:
[1] = test system: A. parasiticus NRRL2999 strain; assay type: cell-based, Aspergillus parasiticus
[2] = test system: A. flavus MAFF111229 strain
[3] = test system: A. parasiticus NRRL2999 strain
[4] = test system: A. flavus IFM47798 strain; experiment: Fungal growth (dry fungal weight) in liquid culture, Test Example 1; assay type: cell-based, Aspergillus flavus
[5] = test system: A. flavus MAFF111229 strain; assay type: cell-based, Aspergillus flavus
[6] = test system: A. flavus IFM47798 strain; assay type: cell-based, Aspergillus flavus; settings: for Total AF Relative Value (%): 48 h, 28° C., untreated control = 100, mean ± SD, n = 4
[7] = test system: A. flavus MAFF111229 strain; assay type: cell-based, Aspergillus flavus; settings: untreated control = 100, mean ± SD, n = 4
[8] = alcohol 0.3 v/v %, 48 h, 28° C., untreated control = 100, mean ± SD, n = 4
[9] = alcohol 0.6 v/v %, 48 h, 28° C., untreated control = 100, mean ± SD, n = 4
[10] = alcohol 1 v/v %, 48 h, 28° C., untreated control = 100, mean ± SD, n = 4
[11] = alcohol 2 v/v %, 48 h, 28° C., untreated control = 100, mean ± SD, n = 4
[12] = alcohol 4 v/v %, 48 h, 28° C., untreated control = 100, mean ± SD, n = 4

SMILES	Fungal Weight Relative Value (%) [2]	Fungal Weight Relative Value (%) [3]	Fungal Weight Relative Value (%) [4]	amount of aflatoxins produced [6]	Fungal Weight Relative Value (%) [4, 8]	Fungal Weight Relative Value (%) [4, 9]	Fungal Weight Relative Value (%) [4, 10]	Fungal Weight Relative Value (%) [4, 11]	Fungal Weight Relative Value (%) [4, 12]	Total AF Relative Value (%) ([6]; alcohol 0.3 v/v %)	Total AF Relative Value (%) ([6]; alcohol 0.6 v/v %)	Total AF Relative Value (%) ([6]; alcohol 1 v/v %)	Total AF Relative Value (%) ([6]; alcohol 2 v/v %)	Total AF Relative Value (%) ([6]; alcohol 4 v/v %)	other results
CCCO [1-Propanol]	104.5 ± 6.5% and 103.9 ± 8.8%	87.4 ± 1.8% and 86.4 ± 2.8%	102.9 ± 12.0% and 118.1 ± 5.4%												Total AF Relative Value (%) [1]: 58.7 ± 9.5 % and 47.5 ± 6.5 %
CCC(C)O (stereo not drawn) [2-Butanol]	56.2 ± 7.3% and 48.9 ± 8.7%		66.1 ± 5.4% and 70.2 ± 4.2%												Total AF Relative Value (%) [5]: 0.0 ± 0.0 %
CC(C)(C)O [2-Methyl-2-Propanol]				increase the amount of aflatoxins produced; also recorded: same tendencies as in the case of ethanol	104.8 ± 7.9%	101.0 ± 4.8%	51.9 ± 15.5%	0.0 ± 0.0%	0.0 ± 0.0%						
CC(C)O [2-Propanol]				increase the amount of aflatoxins produced; also recorded: same tendencies as in the case of ethanol	126.2 ± 6.4%	128.0 ± 11.6%	103.7 ± 7.7%	94.4 ± 8.3%	0.0 ± 0.0%						
CCO [Ethanol]				increase the amount of aflatoxins produced; also recorded: conversely increased						197.1 ± 25.9 %	244.5 ± 13.2 %	222.4 ± 20.9 %	24.3 ± 10.5 %	0.0 ± 0.0 %	aflatoxin production [6]: the aflatoxin production was accordingly inhibited; growth of A. flavus [4]: not inhibited; growth of A. flavus ([4]; concentration of 4 v/v % or higher): the growth of A. flavus was inhibited
CO [Methanol]	123.6 ± 6.8% and 123.6 ± 10.4% and 112.8 ± 10.4% and 98.0 ± 4.6% and 101.4 ± 3.5%	93.3 ± 11.2% and 92.0 ± 6.9% and 100.0 ± 8.5% and 102.1 ± 1.6% and 102.9 ± 3.7%			103.7 ± 3.5%	110.1 ± 6.7%	128.4 ± 3.0%	145.9 ± 11.4%	103.7 ± 3.5%	70.6 ± 12.1 %	63.4 ± 12.7 %	0.0 ± 0.0 %	0.0 ± 0.0 %	0.0 ± 0.0 %	Total AF Relative Value (%) ([1]; alcohol 0.3 v/v %, untreated control = 100, mean ± SD, n = 4): 86.3 ± 3.6 %; Total AF Relative Value (%) ([1]; alcohol 0.6 v/v %, untreated control = 100, mean ± SD, n = 4): 72.3 ± 1.9 %; Total AF Relative Value (%) ([1]; alcohol 1 v/v %, untreated control = 100, mean ± SD, n = 4): 31.1 ± 1.4 %; Total AF Relative Value (%) ([1]; alcohol 2 v/v %, untreated control = 100, mean ± SD, n = 4): 10.3 ± 1.3 %; Total AF Relative Value (%) ([1]; alcohol 4 v/v %, untreated control = 100, mean ± SD, n = 4): 3.4 ± 0.8 %; Total AF Relative Value (%) ([5]; corn kernels sprayed with alcohol 20 μL per 1 g of kernels, 28° C., one week, positive control = 100, mean ± SD, n = 3): 1.0 ± 1.3 %; Total AF Relative Value (%) ([7]; alcohol 0.3 v/v %): 108.5 ± 5.8%; Total AF Relative Value (%) ([7]; alcohol 0.6 v/v %): 102.3 ± 5.0%; Total AF Relative Value (%) ([7]; alcohol 1 v/v %): 13.8 ± 0.8 %; Total AF Relative Value (%) ([7]; alcohol 2 v/v %): 0.0 ± 0.0 %; Total AF Relative Value (%) ([7]; alcohol 4 v/v %): 0.0 ± 0.0 %
